Laboratory results as given in BindingDB's records for doi:10.1021/jm4017448 (China Pharmaceutical University, 2013).

Target: Glucagon-like peptide 1 receptor (Homo sapiens, UniProt P43220)
Test: Activation of human GLP-1 receptor overexpressed in HEK293 cells assessed as cAMP accumulation after 20 mins by HTRF assay

Sequence of Glucagon-like peptide 1 receptor (P43220 whole entry): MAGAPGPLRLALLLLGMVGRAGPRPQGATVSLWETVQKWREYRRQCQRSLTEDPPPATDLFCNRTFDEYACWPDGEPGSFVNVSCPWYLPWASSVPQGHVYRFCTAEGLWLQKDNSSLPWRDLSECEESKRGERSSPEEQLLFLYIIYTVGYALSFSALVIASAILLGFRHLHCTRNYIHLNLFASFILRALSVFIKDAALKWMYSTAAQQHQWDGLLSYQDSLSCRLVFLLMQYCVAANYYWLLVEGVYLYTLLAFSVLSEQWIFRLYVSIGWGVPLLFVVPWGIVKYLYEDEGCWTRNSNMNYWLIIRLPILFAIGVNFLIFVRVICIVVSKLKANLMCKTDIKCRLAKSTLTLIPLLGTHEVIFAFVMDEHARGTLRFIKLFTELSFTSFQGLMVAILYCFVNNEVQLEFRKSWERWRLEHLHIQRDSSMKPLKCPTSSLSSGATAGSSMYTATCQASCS

| EC50 [pM] | Compound |
| --- | --- |
| 3 | CC[C@H](C)[C@H](NC(=O)[C@H](Cc1ccccc1)NC(=O)[C@H](CCC(=O)O)NC(=O)[C@H](CCCCN)NC(=O)[C@H](C)NC(=O)[C@H](C)NC(=O)[C@H](CCC(N)=O)NC(=O)CNC(=O)[C@H](CCC(=O)O)NC(=O)[C@H](CC(C)C)NC(=O)[C@H](Cc1ccc(O)cc1)NC(=O)[C@H](CO)NC(=O)[C@H](CO)NC(=O)[C@@H](NC(=O)[C@H](CC(=O)O)NC(=O)[C@H](CO)NC(=O)[C@@H](NC(=O)[C@H](Cc1ccccc1)NC(=O)[C@@H](NC(=O)CNC(=O)[C@H](CCC(=O)O)NC(=O)CNC(=O)[C@@H](N)Cc1cnc[nH]1)[C@@H](C)O)[C@@H](C)O)C(C)C)C(=O)N[C@@H](C)C(=O)N[C@@H](Cc1c[nH]c2ccccc12)C(=O)N[C@@H](CC(C)C)C(=O)N[C@H](C(=O)N[C@@H](CCCCN)C(=O)NCC(=O)N[C@@H](CCCNC(=N)N)C(=O)N[C@@H](CSC1CC(=O)N(CCCCCC(=O)Nc2ccc(C(c3c(O)c4ccccc4oc3=O)c3c(O)c4ccccc4oc3=O)cc2)C1=O)C(N)=O)C(C)C (some centres not stated) |
| 3 | CC[C@H](C)[C@H](NC(=O)[C@H](Cc1ccccc1)NC(=O)[C@H](CCC(=O)O)NC(=O)[C@H](CS)NC(=O)[C@H](C)NC(=O)[C@H](C)NC(=O)[C@H](CCC(N)=O)NC(=O)CNC(=O)[C@H](CCC(=O)O)NC(=O)[C@H](CC(C)C)NC(=O)[C@H](Cc1ccc(O)cc1)NC(=O)[C@H](CO)NC(=O)[C@H](CO)NC(=O)[C@@H](NC(=O)[C@H](CC(=O)O)NC(=O)[C@H](CO)NC(=O)[C@@H](NC(=O)[C@H](Cc1ccccc1)NC(=O)[C@@H](NC(=O)CNC(=O)[C@H](CCC(=O)O)NC(=O)CNC(=O)[C@@H](N)Cc1cnc[nH]1)[C@@H](C)O)[C@@H](C)O)C(C)C)C(=O)N[C@@H](C)C(=O)N[C@@H](Cc1c[nH]c2ccccc12)C(=O)N[C@@H](CC(C)C)C(=O)N[C@H](C(=O)N[C@@H](CCCCN)C(=O)NCC(=O)N[C@@H](CCCNC(=N)N)C(N)=O)C(C)C |
